How the values were obtained:
Format in all cases: in vivo
[1] = tested on: Aedes albopictus; test: One-minute biting counts on treated forearm (Example 7)
Experimental: This experiment was performed to evaluate the comparative repellency of 5% and 20% 2-undecanone in ethanol, 20% 2-tridecanone in isopropanol and Off!™ 14.25% DEET Insect Repellent aerosol against Aedes albopictus (Asian tiger mosquitoes) and Culex quinquefasciatus (southern house mosquitoes).
Three to four-day-old laboratory-reared female Ae. albopictus and Cx. quinquefasciatus were transferred by aspiration into eight cages measuring 10 inches high×10 inches wide×13 inches deep at a targeted stocking rate of 100 and 200, respectively. Four cages contained Ae. albopictus and four contained Cx. quinquefasciatus. A greater number of Cx. quinquefasciatus was used to compensate for lower biting activity anticipated for this species. The actual number of females per cage was lower than the target-stocking rate because of the high number of males that were inadvertently introduced into the cages. Each cage contained a screened back wall, clear Plexiglas top, stockinette entry sleeve and solid aluminum floor and sidewalls. The mosquitoes were fed water and sugar water prior to and between tests. The tests were conducted over four days, Aug. 7-10, 2001, with four men participating as testers. All testers washed both arms with a non-fragrance soap, rinsed and swabbed with 25% ethanol prior to applying treatments. Treatments were applied to the forearm in a region extending from the wrist to a point measured at 12″ back from the tip of the index finger on both arms. The 20% 2-tridecanone was not applied as uniformly as the other repellents because an insufficient quantity was available. Latex gloves were worn over the hands and replaced before each biting count. The control consisted of a soap wash, rinse and 25% ethanol swab and was conducted by the same person throughout the study. One-minute biting counts were recorded at 0, 1, 2, 4 & 6 hours post-treatment time intervals. All treatments were randomly assigned to each tester, two treatments per tester. Cage placement was also randomized at the beginning of each day of testing. Testers were rotated each day so that by the end of the study they had occupied each cage location. Each repellent was tested two times by three testers so that mean biting counts were based on six observations. A Hobo datalogger was used to monitor temperature and humidity throughout the study.
A balanced incomplete block design following American Society for Testing and Materials standards E 939-94 was employed. Data were normalized by square root transformation and submitted to analysis of variance and mean separation procedures via SS PC. Microsoft Excel 2000 pivot tables and charting functions were used to plot mean biting counts and standard errors by species and time interval for each treatment and control. Mean biting counts were transformed to percent protection or repellency by the following formula: Control−Treatment/Control×100.

[2] = Observation on the investigator's skin after application (Example 6); conditions: applied at full strength (100%) to hand/arm
[3] = tested on: Aedes taeniorhynchus; test: Mosquito repellency of undecanone, treated gauze glove in cage
Experimental: Forty milliliters of a 2.5 percent solution of undecanone in absolute ethanol was added to a gauze glove (20×15 centimeters) in a 250 milliliter beaker. After soaking for 1 minute, the glove was laid onto aluminum foil in a fume hood for 13 minutes and then suspended by one end from the sash of the fume hood for 3 minutes. The ethanol appeared to be completely evaporated after this treatment as determined by touch. […] The same treatment was used without undecanone as a control. After the same drying steps, no odor of ethanol could be detected by smell. The control glove was the same physical dimensions and made from the same batch of material as the treatment. […]
Approximately 100 adult male and female mosquitoes (Aedes taeniorhynchus) (exact sex ratio not determined) were placed in a 12×12×14.5 inch stainless steel screened cage. […]
The following data are the control responses when the tester's hand covered by the ethanol treated (dried) glove was placed into the mosquito cage (at room temperature) for 20 seconds at the times indicated: 0 minutes, 10 landings and 1 bite; 10 minutes, 9-12 landings and 1 bite; 20 minutes, approximately 13 landings and no bites; and 40 minutes, approximately 13 landings and no bites. […] However, only sustained landings of about 5 seconds were recorded as a positive response along with actual bites. […]

[4] = tested on: cockroaches; test: Cockroach repellency, paste floor wax with 2-undecanone; conditions: one percent by weight in paste floor wax
Description: A commercially available paste floor wax is combined with one percent by weight of 2-undecanone and the two ingredients mixed thoroughly together. The paste floor wax is then applied to a region of flooring and buffed. The same paste floor wax, without 2-undecanone, is applied to an adjacent region of flooring in the same amount and also buffed.

[5] = tested on: Culex spp.; test: Mosquito repellency of 2-undecanone versus DEET, treated cloth on forearm (Example 8); conditions: 5% and 20% in ethyl alcohol sprayed onto cloth; landings in 5 minutes
Experimental: 2-undecanone was dissolved in ethyl alcohol (v/v at 5% and 20%) and approximately 1 ml was sprayed onto cloth that was then wrapped around the investigator's forearm prior to insertion into a 59 cm×55 cm×59 cm mosquito cage containing approximately 100 Culex spp. adult mosquitoes. DEET was a formulated, commercial product (Cutter). The number of mosquito landings in 5 minutes was recorded as well as the overall behavior response of the mosquitoes. […] The most impressive evidence of this repellent effect was the observation that the mosquitoes immediately disperse away from the treated arm and actually stop flying, instead lining up on the wire screen of the cage.
The results are shown in FIG. 5 as a graph of repellency as a function of time for 0 hr, 3 hr and 6 hr post-application of the formulations (i) 21% DEET, (ii) 20% 2-undecanone (IBI-246) and (iii) 5% 2-undecanone (IBI-246), where repellency={[# mosquito landings in Control test/# mosquitoes present in Control)−(# mosquito landings in Experiment/# mosquitoes present in Experiment)] divided by (# mosquito landings in Control test/# mosquitoes present in Control)}×100.

[6] = 20% formulations, post-treatment time intervals

Row | SMILES | repellency [1, 6] | skin irritation on application [2] | landings and bites ([3]; glove soaked in 2.5 percent solution in ethanol, dried, hand in cage 20 seconds at 0 minutes to 4 hours and 40 minutes) | host seeking behavior ([3]; glove soaked in 2.5 percent solution, first 3 to 4 hours) | time cockroaches spend in treated region versus control region of flooring [4] | mean biting count, mean separation test versus the 20% formulations ([1]; 5% formulation) | repellency ([1]; 5% formulation, initial value) [%] | repellency ([1]; 5% formulation, value to which repellency diminished) | performance during the first biting count ([1]; Off! 14.25% DEET, 5% 2-undecanone) | concentrations with the strongest repellent effect [5]
1 | CCCCCCCCCCCC(C)=O [2-tridecanone] | low repellency | mildly irritating | – | – | – | – | – | – | – | –
2 | CCCCCCCCCC(C)=O [2-undecanone] | low repellency | – | No landings and no bites | no host seeking behavior | spend less time in the region containing 2-undecanone | significantly (p=0.05) lower mean biting count than the other two formulations | 100 | upper 60 percentile | worked well | strongest effect at the 20% and 5% concentrations

— patent US7288573B2, “Method of repelling insects” (priority 2001, dated 2007)
